Results published in patent US8487091B2, “Substituted cyclopentanes having prostaglandin activity” (Allergan, Inc., priority 2008, dated 2013).
“And” between values parts separate entries of the source, which are not always exact repeats. Equal values may be shown once.

How the values were obtained:
EP2 [1] = target: T1, EP2 (Homo sapiens, UniProt P43116); assay: EP2 binding assay
Source text: (§1) United States Patent Application Publication No. 20070129552, describes the methods used to obtain the in vitro data in Table 1 below. The part of that reference which describes the method is incorporated by reference herein.

EP2 [2] = target: T1, EP2; assay: EP2 cAMP functional assay; type: cell-based
Source text: as §1

T1 sequence (P43116 whole entry): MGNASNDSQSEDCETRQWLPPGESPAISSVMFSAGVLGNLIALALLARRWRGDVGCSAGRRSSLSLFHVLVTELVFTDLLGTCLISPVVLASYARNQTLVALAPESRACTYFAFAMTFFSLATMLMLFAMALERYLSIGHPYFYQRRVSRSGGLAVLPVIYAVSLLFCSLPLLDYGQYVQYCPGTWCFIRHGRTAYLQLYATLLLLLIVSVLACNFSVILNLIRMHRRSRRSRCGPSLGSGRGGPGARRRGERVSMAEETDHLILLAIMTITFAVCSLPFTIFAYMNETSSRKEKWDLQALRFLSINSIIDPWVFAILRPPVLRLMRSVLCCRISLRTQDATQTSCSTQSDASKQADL

| SMILES | Ki (EP2 [1]) | EC50 (EP2 [2]) |
| --- | --- | --- |
| CCC1(C(O)CCCC2C(C#N)CCC2CCCc2ccc(C(=O)O)s2)CCC1 (stereo not shown) [Compound 22] | 123 nM | 18 nM |
| CCC1(C(O)CCC[C@@H]2[C@@H](CCCc3ccc(C(=O)O)s3)CC[C@@H]2Cl)CCC1 (stereo partly shown) [Compound 51] | 377 nM | 114 nM |
| CCC1(C(O)C/C=C/[C@@H]2[C@@H](CCCc3ccc(C(=O)O)s3)CC[C@H]2F)CCC1 (stereo partly shown) [Compound 25] | 16 nM and 67 nM | 5.7 nM |
| CCC1(C(O)C/C=C/[C@@H]2[C@@H](CCCc3ccc(C(=O)O)s3)CC[C@H]2Cl)CCC1 (stereo partly shown) [Compound 10] | 31 nM and 16 nM | 17 nM and 7 nM |
| CCC1(C(O)C/C=C/[C@@H]2[C@@H](CCCc3ccc(C(=O)O)s3)CC[C@@H]2Cl)CCC1 (stereo partly shown) [Compound 50] | 1170 nM | 117 nM |
| CCC1(C(O)CCC[C@@H]2[C@@H](CCCc3ccc(C(=O)O)s3)CC[C@@H]2F)CCC1 (stereo partly shown) [Compound 37] | 25 nM | 19 nM |
| CCC1(C(O)C/C=C/[C@H]2C(=O)CC[C@@H]2CCCc2ccc(C(=O)O)s2)CCC1 (stereo partly shown) [Compound 12] | 86 nM | 5.4 nM |
| CCC1(C(O)C/C=C/[C@@H]2[C@@H](CCCc3ccc(C(=O)O)s3)CC[C@@H]2C#N)CCC1 (stereo partly shown) [Compound 41] | 1390 nM | 129 nM |
| CCC1(C(O)C/C=C/[C@@H]2[C@@H](CCCc3ccc(C(=O)O)s3)CC[C@@H]2F)CCC1 (stereo partly shown) [Compound 35] | 36 nM | 23 nM |
| CCC1(C(O)CCC[C@@H]2[C@@H](CCCc3ccc(C(=O)O)s3)CC[C@H]2F)CCC1 (stereo partly shown) [Compound 27] | 15 nM and 47 nM | 8.5 nM |
| CCC1(C(O)CCCC2C(C#N)CCC2CCCc2ccc(C(=O)O)s2)CCC1 (stereo not shown) [Compound 43] | 516 nM | 54 nM |
| CCC1(C(O)CCC[C@H]2C(=O)CC[C@@H]2CCCc2ccc(C(=O)O)s2)CCC1 (stereo partly shown) [Compound 13] | 137 nM | 6.3 nM |
| CCC1(C(O)C/C=C/C2=CCC[C@@H]2CCCc2ccc(C(=O)O)s2)CCC1 (stereo partly shown) [Compound 16] | 17 nM | 32 nM |
| CCC1(C(O)CCC[C@@H]2[C@@H](CCCc3ccc(C(=O)O)s3)CC[C@H]2Cl)CCC1 (stereo partly shown) [Compound 67] | 40 nM | 11 nM |
